Measured values reported in patent US12274703B2, “Compositions and methods of treatment for neurological disorders comprising a dementia” (Gliapharm SA, priority 2017, dated 2025).
Counter-ions that a name gives are not always drawn. Like-named read-outs stand apart in the source and are kept apart here.

Key:
primary astrocytes = assay: High throughput screening for lactate secretion: acidification of extracellular medium (SNARF5); assay type: cell-based, mouse; parameters: key to Score / HTS Score (lactate) / HTS Score (SNARF5) / Score_SNARF: fraction of positive control activity (positive control = 100%); conditions: for Emax at 10 µM: Mus musculus, Astrocyte, 1.5 h
Method: (§1) Primary cultures of cerebrocortical astrocytes were obtained from 1-2-day-old OF1 mouse pups (Charles River Laboratories). Briefly, cortices were isolated and minced in small pieces under a dissecting microscope. The cells were incubated for 30 min at 37° C. in a solution containing 20 U/ml of papain enzyme (Worthington Biochemical), L-cysteine 1 mM (Sigma), and 10 kU/ml DNase I (Worthington Biochemical) for an enzymatic dissociation. Papain activity was stopped by the addition of fetal calf serum (FCS) to the solution, and a single-cell suspension was then obtained by mechanical dissociation, which consisted in cells trituration in a DMEM (D7777, Sigma-Aldrich) medium (supplemented with 44 mm NaHCO3, and 10 ml/L antibiotic/antimycotic solution) containing 10% FCS. The cells were seeded at an average density of 6×10^4 cells/cm^2 in poly-D-lysine-coated 96, 12 or 6-well culture plates, depending on their use, and incubated at 37° C. in a humidified atmosphere containing 5% CO2/95% air. Culture medium was renewed twice per week. Cells were stimulated and harvested between DIV14 and DIV17, when confluence and cell growth were optimal.
Secretion of lactate in a high-throughput screening (HTS) fashion was measured indirectly through the acidification of extracellular medium. To this end, primary astrocytes grown in 96-well plates for 17 days were stimulated with the compounds as listed herein.
After washing the cells twice with stimulation medium (DMEM (D5030, Sigma), 3 mM NaHCO3 and 5 mM Glucose) at 37° C., cells were stimulated with the compounds at a final concentration of 10 uM (1% DMSO final) in 50 ul per well of stimulation medium supplemented with 10 uM of the extracellular pH sensor SNARF-5F %-(AND-6)-CAR (Life Technologies Corporation). Each compound was tested in two different plates for duplicates.
After 90 min stimulation, fluorescence was read at exc. (excitation) 480 nm/emm. (emission) 580 nm and at exc 480 nm/emm. 630 nm. The ratio of fluorescence between 630 nm and 580 emission values, which represents extracellular pH, was calculated.
In each plate, 8 wells were used for negative controls (DMSO) and 8 wells were used for positive controls (CCCP 2 uM in DMSO). Z prime values were calculated for each of the plates tested and values <0 were discarded.
The average and SD of compounds' values tested in duplicates were calculated, and compound was noted as HIT when the difference between compound's average and negative control's average was greater than three times the sum of compound's SD and negative controls' SD. Only scores greater than 40% were considered as lead hits for the CDC54K library; for the remaining libraries, all hits were considered. Scores are calculated as the % of activity compared to the positive control in each plate (which is 100%).
Primary screening hits were cherry picked on new plates and confirmed for SNARF5 effect, after having discarded those compounds that are fluorescent (exc. 480 nm/emm. 580 nm or 630 nm) before stimulation. Extracellular medium was next analyzed for extracellular lactate quantification for secondary screening.
Identification of lactate-enhancing drugs with high throughput screening (HTS) experiments on astrocytes primary cultures using extracellular pH dye (SNARF5F 5-(and 6)-carboxylic acid) for 90 min. The procedure is described in Material and Methods (2. Cell culture, 2.1. HTS for lactate secretion and 2.2. Extracellular lactate quantification).
The procedure was performed as follows: • Primary screening: acidification of the extracellular medium • Primary screening confirmation: acidification of the extracellular medium, removal of compounds with fluorescent activity at exc. 480 nm/emm. 580 nm or 630 nm. • Secondary screening: dosage of extracellular lactate

astrocytes [1] = assay: Extracellular lactate quantification; assay type: cell-based, mouse; conditions: for EC50: Mus musculus, Astrocyte
Method: as §1
Secretion of L-lactate was determined in the extracellular medium of 96-well plated astrocytes after 90 min stimulation (at 37° C., in 5% CO2/95% air conditions) with the drug of interest. The stimulation medium was composed of D5030 medium (completed with D-glucose 5 mM and 44 mM sodium bicarbonate) for 90 min in concentrations ranging from 0 to 100 μM.
Briefly, 200 μl of a Glycine (Sigma)-Semicarbazide (Acros) 0.2M pH 10 buffer containing 3 mM NAD (Roche) and LDH 14 U/ml (Roche) was added to each well of a 96-well plate containing 30 μl aliquots complemented with 20 μl fresh complete D5030 medium. Samples were incubated at 37° C. for 1 h. After samples cooled down at room temperature, the fluorescence intensity (340 nm excitation/450 nm emission) that represents the amount of NADH produced was measured, and lactate concentration values were determined from a standard curve of L-lactate.
Statistical analysis consisted in ANOVA followed by Fisher LSD post-hoc test for pair-wise comparisons.
Levels of lactate secreted by astrocytes were measured in the extracellular medium at 90 min after stimulation with hits (molecules) from the CDC54K library.

astrocytes [2] = assay: MTT viability assay; assay type: cell-based; conditions: Mus musculus, Astrocyte, cellular toxicity, 0-200 uM
Method: as §1
For cell toxicity determination, astrocytes in 96-well plates were stimulated 24 h (37° C. 5% CO2/95% air) with a gradient ranging from 0.1 to 200 μM of tested compounds. After stimulation, 5 mg/ml thiazol blue tetrazolium bromide (MTT, Sigma-Aldrich) in warm D5030 complete medium was added to each well, and cells were incubated for 4 h at 37° C. (5% CO2). The medium was then removed by aspiration, and the reaction was stopped by the addition of 50 μl DMSO per well.
The amount of reduced MTT (formazan) solubilized in DMSO was then determined spectrophotometrically using absorbance at 570 nm (Safire 2; Tecan).
MTT cellular viability assay was performed on astrocytes exposed to molecules from the Prestwick library (Prestwick hits; concentrations ranging from 0 uM to 200 uM).
MTT cellular viability assay was performed on astrocytes exposed to CDC54K hits (concentrations ranging from 0 uM to 200 uM).

astrocytes [3] = assay: Production of H2O2 (mitochondrial activity); assay type: cell-based; conditions: Mus musculus, Astrocyte, 1.5 h; CDC54K hits; 0-200 uM, 90 min
Method: as §1
Hydrogene peroxide (H2O2) released in the supernatant is detected enzymatically with Amplex red (Zhou, Diwu et al. 1997). Oxidation of Amplex red is catalysed by the horseradish peroxidase in presence of H2O2 into highly fluorescent resorufin. Fluorescence measure is read at 545 nm extinction, 590 nm emission. The amount of H2O2 was expressed relatively to the proteins content extracted from the cells in culture. […]
Mitochondrial respiration in astrocytes was measured through production of H2O2 at 90 min after stimulation with CDC54K hits (ranging from 0 to 200 uM).

astrocytes [4] = assay: Intracellular glycogen quantification; assay type: cell-based, mouse; conditions: 10 μM, 3 h
[5] = Prestwick hits, 10 uM, 90 min, activity relative to positive control CCCP 2 uM, read-out: Score
[6] = Prestwick hits, 10 uM, 90 min, relative to positive control CCCP 2 uM, read-out: HTS Score (lactate)
[7] = 1.5 h, Prestwick hits, 0-100 μM, 90 min, read-out: Lactate EC50
[8] = Appendix I, primary screening, 10 uM, 90 min, relative to positive control, read-out: Score
[9] = CDC54K hits, 10 uM, 90 min, relative to positive control CCCP 2 uM, read-out: HTS Score (SNARF5)
[10] = 1.5 h, CDC54K hits, 0-100 uM, 90 min, read-out: Lactate EC50
[11] = Appendix II, lactate secretion, read-out: EC50

Row | SMILES | EC50 (astrocytes [1]; [7]) | Emax at 10 µM (primary astrocytes; [5]) | Emax at 10 µM (primary astrocytes; [6]) | IC50 (astrocytes [2]; Prestwick hits, 24 h) | other results
1 | COc1ccc(Cc2nccc3cc(OC)c(OC)cc23)cc1OC [Papaverine hydrochloride] | 0.629 µM | 35.5% | 35.5% | > 200 µM | 
2 | COc1ccccc1NC(=O)Cc1nn(C)c(=O)c2ccccc12 [K851-0113] |  |  |  |  | Emax at 10 µM (primary astrocytes; [8]): 72.2%; Emax at 10 µM (primary astrocytes; [9]): 72.2%; EC50 (astrocytes [1]; [10]): 2 µM; IC50 (astrocytes [2]; CDC54K hits): > 200 µM; IC50 (astrocytes [3]): > 200 µM; Glycogen (statistical significance of glycogen degradation) (astrocytes [4]; CDC54K hits): ns
3 | C[N+]1(C)CCC(=C(c2ccccc2)c2ccccc2)CC1 [Diphemanil methylsulfate] | 1.17 µM | 48.4% | 48.4% | 13.9 µM | 
4 | CCc1ccc(S(=O)(=O)N2CCSC2c2ccc(OC)c(OC)c2)cc1 (centres unmarked) [T5463586] |  |  |  |  | Score_SNARF (primary astrocytes; Appendix I, primary screening confirmation (SNARF5)): 0.5553; Score (primary astrocytes; Appendix I, primary screening, 10 uM, 90 min, relative to positive control): 0.7707; HTS Score (SNARF5) (primary astrocytes; CDC54K hits, 10 uM, 90 min, relative to positive control CCCP 2 uM): 0.77; Score_LACTATE (astrocytes [1]; Appendix I, secondary screening, dosage of extracellular lactate): 0.3936; EC50 (astrocytes [1]; [10]): 10 µM; IC50 (astrocytes [2]; CDC54K hits): > 200 µM; IC50 (astrocytes [3]): > 200 µM
5 | COc1cccc(CNS(=O)(=O)c2ccc3c(c2)CCCN3C(C)=O)c1 [T5967389] |  |  |  |  | Emax at 10 µM (primary astrocytes; [8]): 79%; Emax at 10 µM (primary astrocytes; [9]): 79%; EC50 (astrocytes [1]; [10]): 23.5 µM; EC50 (astrocytes [1]; [11]): 9.67 µM; IC50 (astrocytes [2]; CDC54K hits): > 200 µM; IC50 (astrocytes [3]): > 200 µM
6 | O=c1n(CCCN2CCN(c3cccc(Cl)c3)CC2)nc2ccccn12 [Trazodone hydrochloride, trazodone, reference compound] |  |  |  |  | Score (primary astrocytes; Prestwick hits, 10 uM, 90 min, activity relative to positive control CCCP 2 uM): 0.08377; HTS Score (lactate) (primary astrocytes; Prestwick hits, 10 uM, 90 min, relative to positive control CCCP 2 uM): 0.084; Glycogen (statistical significance of glycogen degradation) (astrocytes [4]; Prestwick hits): ns
7 | O=C(COc1ccc(Cl)cc1)N1CCN(Cc2ccc3c(c2)OCO3)CC1 [Fipexide hydrochloride] | 5.16 µM | 16.6% | 16.6% | 44 µM | Glycogen (statistical significance of glycogen degradation) (astrocytes [4]; Prestwick hits): ns
8 | C#C[C@]1(O)CC[C@H]2[C@@H]3[C@H](C)CC4=C(CCC(=O)C4)[C@H]3CC[C@@]21C [Tibolone] | 2.23 µM | 22.7% | 22.7% | 60.7 µM | 
9 | N=C(N)N1CCc2ccccc2C1 [Debrisoquin sulfate] | 2.73 µM | 23.8% | 23.8% | > 200 µM | 
10 | CC(Nc1ncnc2sccc12)c1ccccn1 (centres unmarked) [T5672380] |  |  |  |  | Emax at 10 µM (primary astrocytes; [8]): 76.5%; EC50 (astrocytes [1]; [11]): 3.91 µM
11 | CC[N+](CC)(CC(=O)Nc1c(C)cccc1C)Cc1ccccc1 [Denatonium benzoate] | 12.2 µM | 11% | 11% | 178 µM | 

Second part, led by results:

Row | EC50 (astrocytes [1]; [7]) | SMILES | Emax at 10 µM (primary astrocytes; [5]) | Emax at 10 µM (primary astrocytes; [6]) | IC50 (astrocytes [2]; Prestwick hits, 24 h) | other results
12 | 2.57 µM | Cc1c(C)c2c(c(C)c1O)CCC(C)(COc1ccc(CC3SC(=O)NC3=O)cc1)O2 (centres unmarked) [Troglitazone] | 27% | 27% | 106 µM | 
13 | 11.7 µM | CC(C)[N+](C)(CCOC(=O)C1c2ccccc2Oc2ccccc21)C(C)C [Propantheline bromide] | 49.1% | 49.1% | 12.8 µM | 
14 | 0.602 µM | COC1=C(OC)C(=O)C(CCCCCCCCCCO)=C(C)C1=O [Idebenone] | 25.9% | 25.9% | 112 µM | 
15 | 0.854 µM | [H]/N=C(\N/C(=N/[H])Nc1ccc(Cl)cc1)NC(C)C [Proguanil hydrochloride] | 55.5% | 55.5% | 48.1 µM | 
